{"source": "patent US4788211A", "about": "“Antifungal compound and AFC complex produced from actinomadura SCC 1838” (priority 1987, dated 1988)", "key": {"iv LD50 in mice": {"test": "iv LD50 in mice", "conditions": "mouse, in vivo"}, "Candida (seven species)": {"system": "Candida (seven species)", "test": "in vitro antifungal activity (geometric mean MIC), Candida", "assay_type": "cell-based", "conditions": "for MIC: Candida, Candida (seven species)", "source_text": "(§1) The in vitro antifungal results are summarized in Table II and provide the geometric mean MIC (mcg/mL)."}, "Candida": {"system": "Candida", "test": "intravaginal Candida infection in hamsters", "assay_type": "in vivo"}, "[1]": {"system": "Dermatophytes (six species)", "test": "in vitro antifungal activity (geometric mean MIC), dermatophytes", "assay_type": "cell-based", "conditions": "for MIC: Dermatophytes (six species)", "source_text": "as §1"}, "[2]": {"conditions": "SDB (Sabouraud dextrose broth medium)"}}, "data": [{"smiles": "N=C(N)NCCCCCCCCC(O)CCCCCCCC1NC(=N)NC1CC(O)CNC(=N)N", "note": "(stereo not drawn) [compound of this invention]", "values": [{"measurement": "LD50", "setting": "iv LD50 in mice", "result": "~1.5", "unit": "mg/kg"}, {"measurement": "MIC", "setting": "Candida (seven species); EMEM (Eagles Minimum Essential Medium)", "result": "< 0.03", "unit": "µg/mL"}, {"measurement": "MIC", "setting": "Candida (seven species); MA Medium", "result": "≤ 1.4", "unit": "µg/mL"}, {"measurement": "MIC", "setting": "Candida (seven species); [2]", "result": "≥ 58", "unit": "µg/mL"}, {"measurement": "in vitro antifungal activity", "setting": "Candida (seven species); seven species of Candida", "result": "very good in vitro antifungal activity"}, {"measurement": "activity against an intravaginal Candida infection", "setting": "Candida", "result": "slight activity"}, {"measurement": "MIC", "setting": "[1]; MA Medium", "result": 2.5, "unit": "µg/mL"}, {"measurement": "MIC", "setting": "[1]; [2]", "result": "≤ 0.13", "unit": "µg/mL"}, {"measurement": "in vitro antifungal activity", "setting": "[1]; six species of dermatophytes", "result": "very good in vitro antifungal activity"}]}]}
